Structures can show the parent of a compound that is named as a salt. Where two headings read alike, the source gives them in different places.
What was measured:
[1] = Plasma exposure of efficacious doses in rodents; assay type: in vivo; details: separate tests of anxiolysis and antidepressant activity
[2] = Intrinsic dissolution rate in simulated biological media; assay type: physicochemical
Method: Intrinsic dissolution rate is determined at 37° C. using a Distek Dissolution System model 5100A with a sample size of approximately 200 mg (0.5 cm^2 disc) and 500 mL dissolution medium. The paddle speed is set to 500 rpm and the paddle height to approximately 2.54 cm above the disc surface. The concentration of sample in solution is determined by HPLC.

[3] = assay type: physicochemical; details: water vapor sorption, typical laboratory humidity (55% RH)
Method: Data are collected on a VTI SGA-100 moisture balance system. For sorption isotherms, a sorption range of about 0% to about 90% relative humidity (RH) and a desorption range of about 90 to about 0% RH in 10% RH increments are used for analysis. The samples are not dried prior to analysis. Equilibrium criteria used for analysis are less than 0.0100% weight change in 5 minutes with a maximum equilibration time of 3 hours if the weight criterion is not met. Data are not corrected for the initial moisture content of the samples.
The amorphous material was placed into preset RH conditions (50% and 75% RH) for 24 hours to check dynamic moisture absorption as well as deliquescence.

[4] = Method: Stress Experiments. Solids are stressed under different temperature or relative humidity (RH) environments for a measured time period. Specific RH values are achieved by placing the sample inside sealed chambers containing saturated salt solutions, as known in the art. The salt solutions are selected and prepared following an ASTM standard procedure. Samples are analyzed by XRPD immediately after removal from the stress environment.
Analyses are carried out on an Agilent® model 1100 high performance liquid chromatograph using gradient elution on a reversed phase column utilizing ultraviolet (UV) detection. Approximately 25 mg of the sample is weighed accurately and dissolved in methanol/water/trifluoroacetic acid (35:65:0.05) to a volume of 50 mL. The sample solution is analysed using the conditions specified below:
The content of the drug and related substances are quantified by area (%).
Chemical Stability. The chemical stability of Form I of the mono-HCl salt of Compound A1 was assessed by stressing the material at various temperature/relative humidity/light conditions, then analyzing by HPLC.
Chemical Stability Data. The chemical stability of a sample of Form I of the sesquifumarate salt of Compound A1 was assessed by stressing the material at various temperature/relative humidity/light conditions, then analyzing by HPLC.

[5] = Solubility in simulated biological media; assay type: physicochemical; details: mean ± SD, n = 2
Description: Solubility and Dissolution Rate Data.
Solubility and Dissolution Rate Data. […]

[6] = Ultraviolet light, 25° C./60% RH, 2x ICH (2 days), stored open
[7] = Ultraviolet light, 25° C./60% RH, 3x ICH (3 days), stored open
[8] = Ultraviolet light, 25° C./60% RH, ICH (1 day), stored open
[9] = White light, 25° C./60%, ICH (7 days), stored open
[10] = 0.1M phosphate buffer, initial pH 7.5
[11] = FaSSIF (fasted-state simulated intestinal fluid), initial pH 6.51
[12] = FeSSIF (fed-state simulated intestinal fluid), initial pH 5.03
[13] = SGF (simulated gastric fluid), initial pH 1.3

CCN(CC)C(=O)c1ccc([C@H](c2cccc(N)c2)N2CCN(Cc3ccc(F)cc3)CC2)cc1 [Form I of the sesquifumarate salt of Compound A1] [4-{(R)-(3-aminophenyl)[4-(4-fluorobenzyl)piperazin-1-yl]methyl}-N,N-diethylbenzamide]
mean plasma exposures produced by efficacious doses [1]: ≥ 2 ng/mL
IDR (intrinsic dissolution rate) ([2]; FaSSIF, initial pH 6.51, mean ± SD, n = 2): 553 μg/min/cm^2
IDR (intrinsic dissolution rate) ([2]; FaSSIF, initial pH 6.51, mean ± SD, n = 2, listed as Compound A1 Sesquifumarate Salt): 553 ± 68.9 μg/min/cm^2
IDR (intrinsic dissolution rate) ([2]; FeSSIF, initial pH 5.03, mean ± SD, n = 2): 33.5 μg/min/cm^2
IDR (intrinsic dissolution rate) ([2]; FeSSIF, initial pH 5.03, mean ± SD, n = 2, listed as Compound A1 Sesquifumarate Salt): 33.5 ± 1.15 μg/min/cm^2
IDR (intrinsic dissolution rate) ([2]; SGF, initial pH 1.3): too soluble to permit determination of its IDR
moisture content at equilibrium [3]: approximately 4.5%
% Purity (after challenge) ([4]; 25° C./60% RH, 7 days): 99.6%
% Purity (reference material) ([4]; 25° C./60% RH, 7 days): 104.0%
% Purity (after challenge) ([4]; 40° C./75% RH, 7 days): 99.5%
% Purity (reference material) ([4]; 40° C./75% RH, 7 days): 103.5%
% Purity after 60° C./80% RH, 2 wks ([4]; 60° C./80% RH, 2 weeks, HPLC area %): 86.5%
% Purity after 60° C./80% RH, 4 wks ([4]; 60° C./80% RH, 4 weeks, HPLC area %): 80.3%
% Purity after 80° C., 2 wks ([4]; 80° C., 2 weeks, HPLC area %): 91.8%
% Purity after 80° C., 4 wks ([4]; 80° C., 4 weeks, HPLC area %): 86.1%
% Purity (after challenge) ([4]; 80° C., 7 days): 97.1%
% Purity (reference material) ([4]; 80° C., 7 days): 99.8%
Purity after Photostability 3X ICH conditions ([4]; Photostability 3X ICH conditions, HPLC area %): 93.2%
% Purity (after challenge) ([4]; Reference, 0 days): 99.6%
% Purity (reference material) ([4]; Reference, 0 days): 100%
% Purity (after challenge) [4, 6]: 99.6%
% Purity (reference material) [4, 6]: 100.7%
% Purity (after challenge) [4, 7]: 99.4%
% Purity (reference material) [4, 7]: 100.9%
% Purity (after challenge) [4, 8]: 99.5%
% Purity (reference material) [4, 8]: 100.2%
% Purity (after challenge) [4, 9]: 99.5%
% Purity (reference material) [4, 9]: 101.7%
Initial Purity ([4]; initial, before storage, HPLC area %): 98.6%
Solubility, 3 hr [5, 10]: 180 µg/mL
Solubility, 24 hr [5, 10]: 120 µg/mL
Solubility, 3 hr [5, 11]: 4400 µg/mL
Solubility, 24 hr [5, 11]: 4130 µg/mL
Solubility, 3 hr [5, 12]: 2540 µg/mL
Solubility, 24 hr [5, 12]: 2660 µg/mL
Solubility, 3 hr [5, 13]: 17400 µg/mL
Solubility, 24 hr [5, 13]: 17100 µg/mL

— patent US20110207745A1 (priority 2009, published 2011)
